Reference: patent publication US20060281695A1, “Control of parasites in animals by N-[(phenyloxy)phenyl]-1,1,1-trifluoromethanesulfonamide and N-[(phenylsulfanyl)phenyl]-1,1,1-trifluoromethanesulfonamide derivatives” (priority 2005, published 2006)

Columns and labels:
[1] = tested on: cat flea (Ctenocephalides felis); experiment: Ctenocephalides felis adulticide assay: single dose screen on treated glass surface (% mortality at 1.26 μg/cm^2, 24 hours); type: in vivo; settings: for mortality at 1.26 µg/cm2, 1.26 µg/cm2: Ctenocephalides felis, 24 h, read-out: Ctenocephalides felis Mortality (%) 24 h
Method: The LC50 value is the concentration, expressed as μg/cm^2, that was required to kill 50% of the sample of cat fleas on contact with the tested compound. Certain tests are also reported as the percent of a sample of cat fleas that were killed at a concentration of 1.26 μg/cm^2 (“% mortality”), for the compounds tested in this way.
b) Ctenocephalides felis Adulticide Assay: C.felis single dose screen
Mortality of fleas is the primary endpoint in the assay. […] The concentration chosen (1.26 μg/cm^2) is higher than that known to kill 90% of cat fleas (LC90) using the reference compound, permethrin.
The test species employed was the cat flea (Ctenocephalides felis). The strain used was obtained from external suppliers as pupae and held in the laboratory under testing conditions until the adults had emerged. Fifteen (15) fleas were used in a minimum of four replicates against a single concentration level (approximately 60 fleas). The insects were selected to be in the adult life stage, aged between 3 and 7 days post emergence.
The compounds to be tested were supplied as solids and were prepared in acetone as described below prior to testing. Samples were stored in a refrigerator (5±1° C.) unless otherwise specified.
During the mortality testing, the temperature was maintained at 25±1° C. Humidity was maintained at 75±5%. The base (area=159 mm^2) of a 100 mL glass Erlenmeyer (conical) flask provided the treatment surface. Flasks were pre-treated with Coatasil™ glass treatment to maximise bio-availability of test compounds by preventing them from binding to glass the surface. The base of the 100 mL Erlenmeyer flask was treated with 0.5 mL of test sample in acetone and gently swirled. This volume was sufficient to cover the base of the flask. Flasks were left to dry for 24 hours before flea exposure.
Adult cat fleas were placed into a sorting chamber, which allowed fleas to jump into the Erlenmeyer flasks. Fifteen (15) adult cat fleas were collected in each flask. The top of the flasks were then covered in Parafilm™ and small holes were made to allow gas exchange. A 0.5 mL volume of acetone as a solvent control was applied to the base of an Erlenmeyer flask and the testing proceeded in the same manner described above. […] Pooled 24 hour mortality data were converted to percentages and are summarized by Table 4, below.
(§1) In Table 7, provided below, are listed the Haemonchus contortus LD99 values (measured in micrograms/mL), the Ctenocephalides felis rapid screening values (measured in % mortality), the Ctenocephalides felis LC50 values (measured in micrograms/cm^2) and the Rhipicephalus sanguineus rapid screening values (measured in % mortality) for selected compounds in accordance with the present invention.

[2] = tested on: Brown Dog Tick (Rhipicephalus sanguineus); experiment: Topical application on brown dog ticks, single dose screen (% mortality at 24 hours); type: in vivo; settings: adult brown dog ticks, topical 1 μL in acetone on abdomen, single dose 10 μg per tick
Method: d) Topical Application On Brown Dog Ticks (Rhipicephalus sanguineus)
The aim of the test is to determine the presence of significant acaricidal activity in sample compounds or formulations when applied topically on brown dog ticks. A tick is defined as dead if it gives no apparent response when: (i) touched lightly and (ii) then observed for 1 minute. To assess the experimental compound for acaricidal activity, a single dose level is chosen based on known results from previous experiments with a commercially available active reference compound.
In the present example, both permethrin and fipronil were employed as reference compounds. The insect species tested was the Brown Dog Tick (Rhipicephalus sanguineus). Mixed sex adult ticks were used for tests. The strain used was cultured from a field strain and supplied as unfed adult ticks (mixed sex). Ticks were maintained in controlled conditions (temp. 18°±2° C., humidity 75±5% RH).
Test compounds (formulations or active ingredients) were stored in a refrigerator (5±1° C.) unless otherwise specified. The temperature was maintained at 25±1° C. and the humidity was ambient. The screening dose chosen was higher than that known kill 90% of insects (LD90) using the reference compound. In the case of topical application of active compounds on adult ticks, the reference compound was fipronil and the dose chosen was 10 μg of active per tick (=10 μg of fipronil/1 μl of acetone). Ticks were each treated on the abdomen with 1 μL of a single dose level of test sample in acetone; ten ticks were treated with solvent only (acetone) in each test. Tests were replicated 4 times (total of 40 ticks treated). Ticks were held in recovery containers maintained under appropriate rearing conditions for 24 hours. Mortality resulting from the treatments was recorded at 24 hours. Pooled 24 hour mortality data were converted to percentages.
as §1

Haemonchus contortus = Haemonchus contortus larvacidal (larval development) assay, LD99; type: in vitro
Method: The LD99 value is the dose, expressed as […], that was required to kill 99% of a sample of Haemonchus contortus.
a) Haemonchus Contortus Larvacidal Assay:
The effect of compounds on larval development was determined in the assay described by Gill et al. [International Journal of Parasitology 25:463-470 (1995)]. Briefly, in this assay, nematode eggs are applied to the surface of an agar matrix containing the test compound and then allowed to develop through to the L3, infective stage (6 days). The wells for each dilution of every compound (from highest to lowest concentration) are inspected to determine the well number corresponding to the lowest concentration at which development is inhibited in 99% of the nematode larvae present (LD99). Because well numbers correspond to a two-fold serial dilution of each compound, a titre (dilution factor) is generated as 2^n−1, where n is the well number. By dividing the highest concentration tested by the titre an LD99 value can be obtained, representing the concentration required to inhibit development in 99% of the nematode larvae present. The compounds supplied as solid and viscous liquids are dissolved in DMSO. Twelve serial one-half dilutions in DMSO solution are prepared from the stock solution, each of which is then diluted 1/5 with water. Aliquots (10 μl) of each dilution are transferred to the bioassay plates to give a final concentration range of 0.024 to 50 μg/ml.
as §1

[3] = adult cat fleas, single dose screen on treated glass surface, mortality at 24 h

## COCN(c1ccc(Cl)cc1Oc1ccc(Cl)cc1Cl)S(=O)(=O)C(F)(F)F [Compound 84]
[1]; in vivo
  Ctenocephalides felis Mortality (%) 24 h: 100%
[2]
  Rhipicephalus sanguineus Mortality (%) 24 h: 0%

## CC(C)=CCN(c1ccc(Cl)cc1Oc1ccc(Cl)cc1Cl)S(=O)(=O)C(F)(F)F [Compound 75, N-(3-methyl-2-butenyl)-N-[4-chloro-2-(2,4-dichlorophenoxy)phenyl]-1,1,1-trifluoromethanesulfonamide]
[1]
  mortality at 1.26 µg/cm2, 1.26 µg/cm2: 97%
[2]
  Rhipicephalus sanguineus Mortality (%) 24 h: 3%

## O=S(=O)(c1ccc(Cl)cc1)c1cc(Cl)ccc1NS(=O)(=O)C(F)(F)F [Compound 24, N-[4-chloro-2-(4-(chlorophenyl)sulfonyl)phenyl]-1,1,1-trifluoromethanesulfonamide]
Haemonchus contortus
  Haemonchus contortus LD99: 12.0 µg/mL
[1]; in vivo
  Ctenocephalides felis Mortality (%) 24 h: 19%

## O=S(=O)(Nc1ccc(Cl)cc1Oc1ccccc1Cl)C(F)(F)F [Compound 6]
Haemonchus contortus
  Haemonchus contortus LD99: 15.0 µg/mL
[1]; in vivo
  Ctenocephalides felis Mortality (%) 24 h: 74%

## CCCC(=O)OCN(c1ccc(Cl)cc1Oc1ccc(Cl)cc1Cl)S(=O)(=O)C(F)(F)F [Compound 73, N-[4-chloro-2-(2,4-dichlorophenoxy)phenyl]-N-(butyryl)oxymethyl-1,1,1-trifluoromethanesulfonamide]
[1]
  mortality at 1.26 µg/cm2, 1.26 µg/cm2: 31%
[1]; in vivo
  Ctenocephalides felis Mortality (%), measured at 48 hours: 100%
[2]
  Rhipicephalus sanguineus Mortality (%) 24 h: 8%

## C#CCN(c1ccc(Cl)cc1Oc1ccc(Cl)cc1Cl)S(=O)(=O)C(F)(F)F [Compound 83, N-[4-chloro-2-(2,4-dichlorophenoxy)phenyl]-N-(2-propynyl)-1,1,1-trifluoromethanesulfonamide]
[1]
  mortality at 1.26 µg/cm2, 1.26 µg/cm2: 100%
[2]
  Rhipicephalus sanguineus Mortality (%) 24 h: 8%

## Cc1cccc(Oc2cc(Cl)ccc2NS(=O)(=O)C(F)(F)F)c1C [Compound 27]
Haemonchus contortus
  Haemonchus contortus LD99: 14 µg/mL
[1]; in vivo
  Ctenocephalides felis Mortality (%) 24 h: 59%

## O=S(=O)(Nc1ccc(Cl)cc1Oc1cccc2c1CCCC2)C(F)(F)F [Compound 28]
Haemonchus contortus
  Haemonchus contortus LD99: 12 µg/mL
[1]; [3]
  Ctenocephalides felis Mortality (%) 24 h: 10%

## CCOCN(c1cccc(Oc2ccccc2)c1)S(=O)(=O)C(F)(F)F [m3]
[1]; in vivo
  Ctenocephalides felis Mortality (%) 24 h: 57%
[2]
  Rhipicephalus sanguineus Mortality (%) 24 h: 38%

## O=S(=O)(Nc1cc(C(F)(F)F)c(Cl)cc1Oc1ccc(Cl)cc1Cl)C(F)(F)F [Compound 22]
Haemonchus contortus
  Haemonchus contortus LD99: 0.63 µg/mL
[1]; in vivo
  Ctenocephalides felis Mortality (%) 24 h: 4%

## COCN(c1cccc(Oc2ccccc2)c1)S(=O)(=O)C(F)(F)F [m4]
[1]; in vivo
  Ctenocephalides felis Mortality (%) 24 h: 90%
[2]
  Rhipicephalus sanguineus Mortality (%) 24 h: 8%

## CN(c1ccc(Cl)cc1Oc1ccc(Cl)cc1Cl)S(=O)(=O)C(F)(F)F [Compound 70, N-[4-Chloro-2-(2,4-dichlorophenoxy)phenyl]-N-methyl-1,1,1-trifluoromethanesulfonamide]
[1]
  mortality at 1.26 µg/cm2, 1.26 µg/cm2: 11%
[1]; in vivo
  Ctenocephalides felis Mortality (%), measured at 48 hours: 91%
[2]
  Rhipicephalus sanguineus Mortality (%) 24 h: 5%

## O=S(=O)(Nc1ccc(Cl)c(Cl)c1Oc1ccccc1F)C(F)(F)F [Compound 17]
Haemonchus contortus
  Haemonchus contortus LD99: 7.5 µg/mL
[1]; in vivo
  Ctenocephalides felis Mortality (%) 24 h: 19%

## CCOCN(c1ccc(Cl)cc1Oc1ccc(Cl)cc1Cl)S(=O)(=O)C(F)(F)F [Compound 71, N-[4-Chloro-2-(2,4-dichlorophenoxy)phenyl]-N-ethoxymethyl 1,1,1-trifluoromethanesulfonamide]
[1]; in vivo
  Ctenocephalides felis Mortality (%) 24 h: 0%
  Ctenocephalides felis Mortality (%), measured at 48 hours: 100%
[2]
  Rhipicephalus sanguineus Mortality (%) 24 h: 5%

## O=S(=O)(Nc1cc(Cl)c(Cl)cc1Oc1ccc(F)cc1Cl)C(F)(F)F [Compound 19]
Haemonchus contortus
  Haemonchus contortus LD99: 5.0 µg/mL
[1]; in vivo
  Ctenocephalides felis Mortality (%) 24 h: 42%

## CC(C)=CCN(c1ccc(Cl)cc1Oc1ccccc1F)S(=O)(=O)C(F)(F)F [Compound 82]
[1]; in vivo
  Ctenocephalides felis Mortality (%) 24 h: 90%
[2]
  Rhipicephalus sanguineus Mortality (%) 24 h: 0%

## CC(C)(C)c1ccc(Oc2cc(Cl)c(Cl)cc2NS(=O)(=O)C(F)(F)F)cc1 [Compound 18]
Haemonchus contortus
  Haemonchus contortus LD99: 2.8 µg/mL
[1]; in vivo
  Ctenocephalides felis Mortality (%) 24 h: 19%

## O=S(=O)(Nc1cccc(Oc2ccccc2)c1)C(F)(F)F [m1]
[1]; in vivo
  Ctenocephalides felis Mortality (%) 24 h: 93%
[2]
  Rhipicephalus sanguineus Mortality (%) 24 h: 38%

## O=S(=O)(Nc1cc(Cl)c(Cl)cc1Oc1ccc(Cl)cc1Cl)C(F)(F)F [Compound 13]
Haemonchus contortus
  Haemonchus contortus LD99: 1.8 µg/mL
[1]; in vivo
  Ctenocephalides felis Mortality (%) 24 h: 48%

## C#CCN(c1ccc(Cl)cc1Oc1ccccc1F)S(=O)(=O)C(F)(F)F [Compound 85]
[1]; in vivo
  Ctenocephalides felis Mortality (%) 24 h: 97%
[2]
  Rhipicephalus sanguineus Mortality (%) 24 h: 5%

## O=S(=O)(Nc1ccccc1Nc1ccccc1)C(F)(F)F [Compound 90]
[1]; in vivo
  Ctenocephalides felis Mortality (%) 24 h: 88%
[2]
  Rhipicephalus sanguineus Mortality (%) 24 h: 13%

## O=S(=O)(Nc1ccc(Cl)cc1Oc1ccc(Cl)c(Cl)c1)C(F)(F)F [Compound 7]
Haemonchus contortus
  Haemonchus contortus LD99: 1.63 µg/mL
[1]; [3]
  Ctenocephalides felis Mortality (%) 24 h: 22%

## CC(C)(C)C(=O)OCN(c1ccc(Cl)cc1Oc1ccc(Cl)cc1Cl)S(=O)(=O)C(F)(F)F [Compound 72, N-[4-Chloro-2-(2,4-dichlorophenoxy)phenyl]-N-(trimethylacetyl)oxymethyl-1,1,1-trifluoromethanesulfonamide]
[1]
  mortality at 1.26 µg/cm2, 1.26 µg/cm2: 14%
[1]; in vivo
  Ctenocephalides felis Mortality (%), measured at 48 hours: 100%
[2]
  Rhipicephalus sanguineus Mortality (%) 24 h: 0%

## O=S(=O)(Nc1cc(C(F)(F)F)ccc1Oc1ccc(Cl)cc1)C(F)(F)F [Compound 29]
Haemonchus contortus
  Haemonchus contortus LD99: 7.0 µg/mL
[1]; in vivo
  Ctenocephalides felis Mortality (%) 24 h: 57%
